Reference: paper PMC12351382, “Fibrinography and thrombography (thrombodynamics-4D) in atrial fibrillation assessment of direct oral anticoagulants in geriatrics patients aged 80 years and older receiving direct oral anticoagulant therapy” (Research and Practice in Thrombosis and Haemostasis, 2025)

Tests used:
fibrin clot formation [1] = experiment: Thrombodynamics-4D fibrinography in pooled normal plasma (Cryocheck) spiked with DOACs; assay type: biochemical, human; conditions: 0 to 1000 nM, mainly at low DOAC concentrations
Protocol: (§1) Frozen pooled normal plasma samples (Cryocheck-Cryopep) were spiked with increasing concentrations of DOACs (0-450 ng/mL), as previously described. […] were kindly provided by Bristol Myers Squibb/Pfizer, Bayer Healthcare, and Boehringer Ingelheim, respectively.
The TD-4D assay was performed centrally using the Thrombodynamics analyzer system (Hemacore, Diapharma) with the TD-4D PLS dedicated kit (Hemacore, Diapharma). The system simultaneously measures spatiotemporal parameters of fibrin clot formation (fibrinography) and TG process (thrombography) in a thin layer of unstirred plasma. Briefly, 120 μL of platelet-poor plasma is added to a microcuvette containing corn trypsin inhibitor to prevent contribution of contact phase activation, then 5 μL of phospholipid solution (manufacturer’s reagent) is added. […] The process of fibrin clot formation is recorded in a time-lapse video-microscopy mode using a dark-field light scattering method. […] Clot growth is detected with red light scattering, while AMC fluorescence is detected with UV. Scattered red light and fluorescence passing through the macro lens are recorded by a charge-coupled device system. […]
(§2) The following fibrinography parameters were recorded (see Supplementary Table 1): (i) lag time (Tlag, minutes); (ii) initial rate of clot growth (Vi, μm/min); (iii) rate of clot growth (V, μm/min); (iv) clot size (CS, μm) measured at 30 minutes; (v) clot density (D, arbitrary units); (vi) time to spontaneous clotting (Tsp, minutes). The following thrombography parameters (at the near-activator area) were recorded (see Supplementary Table 1): (i) Tlag (minutes); (ii) time to thrombin peak (minutes); (iii) maximal thrombin concentration (ie, thrombin peak height, Cmax_ATG, AU/L); (iv) endogenous thrombin potential (ETP_ATG, AU⋅min/L); (v) stationary amplitude of moving peak of thrombin (Ast, AU/L); (vi) rate of thrombin peak propagation (μm/min; see Supplementary Videos 1–3).

thrombin generation [2] = experiment: Thrombodynamics-4D thrombography in pooled normal plasma (Cryocheck) spiked with DOACs; assay type: biochemical, human
Protocol: as §1
(§3) The TD-4D assay was performed centrally using the Thrombodynamics analyzer system (Hemacore, Diapharma) with the TD-4D PLS dedicated kit (Hemacore, Diapharma). The system simultaneously measures spatiotemporal parameters of fibrin clot formation (fibrinography) and TG process (thrombography) in a thin layer of unstirred plasma. Briefly, 120 μL of platelet-poor plasma is added to a microcuvette containing corn trypsin inhibitor to prevent contribution of contact phase activation, then 5 μL of phospholipid solution (manufacturer’s reagent) is added. After incubation for 15 minutes at 37 °C in the Thrombodynamics device, the mixture is transferred to a second microcuvette containing calcium ions, and then immediately transferred to the measurement cuvette. Finally, the activator insert, whose surface is coated with immobilized tissue factor (100 pmol/m^2), is then transferred to the cuvette. The process of fibrin clot formation is recorded in a time-lapse video-microscopy mode using a dark-field light scattering method. Simultaneously, the system monitors TG by fluorimetry, based on the ability of thrombin to cleave a fluorogenic substrate, 7-amino-4-methylcoumarin (AMC) bound to a short amino acid sequence (Arg-Gly-Gly). The rate of AMC formation is proportional to local thrombin concentration. The microcuvette is maintained at 37 °C and is illuminated with red (625 nm) or ultra-violet (365 nm) light emitting diodes. Clot growth is detected with red light scattering, while AMC fluorescence is detected with UV. Scattered red light and fluorescence passing through the macro lens are recorded by a charge-coupled device system. Images under red and blue light are acquired once per minute. […]
as §2

thrombin generation [3] = experiment: Thrombodynamics-4D thrombography in plasma samples from ADAGE patients on DOACs; assay type: in vivo, human; conditions: for ETP (endogenous thrombin potential, ETP_ATG), median (IQR) / ETP (endogenous thrombin potential, ETP_ATG), range / Thrombin peak height (Cmax_ATG), median (IQR) / Thrombin peak height (Cmax_ATG), range / Thrombography Tlag (Lag_ATG), median (IQR) / Thrombography Tlag (Lag_ATG), range / Time to peak (Tmax_ATG), median (IQR) / Time to peak (Tmax_ATG), range: ADAGE patients, reduced dose (regimens as E1)
Source text: (§4) ADAGE is an academic, prospective, observational multicenter study (NCT 02464488; for details, see Foulon-Pinto et al.). We recruited hospitalized patients from the university hospital’s geriatric department (Assistance Publique-Hôpitaux de Paris, Paris, France). […] The DOAC dose regimen was at the discretion of the physician. Exclusion criteria included any acute, unstable comorbid condition or an estimated life expectancy of a few weeks. Sampling (see below) and last DOAC intake times were recorded on a standardized request form. Sampling time points were at the discretion of the physicians over a period of 20 days following inclusion. Time points were classified according to the time elapsed from the last oral intake (T, hours) for patients receiving rivaroxaban. T1 to T4 corresponded to peak time (Tmax), and T20 to T24 corresponded to trough (Tmin). […] Physicians prospectively collected demographic, clinical, and laboratory data (including creatinine clearance [CrCl] calculated with the Cockcroft–Gault formula). The study was approved by the institutionnel Ethics Committee (Comité consultatif de protection des personnes pour la recherche biomédicale–Île-de-France-6–number 15.074bis). All participants gave written informed consent to participate in the study. Only patients for whom remaining plasma aliquots were available were included in the present study.
(§5) Tubes were sent to each centre’s laboratory within 2 hours after sampling and immediately double-centrifuged for 15 minutes at 2000 × g at 15 to 22 °C to obtain platelet-poor plasma. Plasma samples (500 μL aliquots) were stored at −80 °C prior to shipment on dry ice for central analysis (Haematology Laboratory, Hôpital Lariboisière). Plasma samples were thawed for 3 to 5 minutes in a 37 °C water bath just before testing.
as §3, with “minute. The whole analysis lasts 1 hour. The Thrombodynamics software (Hemacore, Diapharma) calculates parameters of spatiotemporal dynamics of fibrin clot formation and TG [40, 46].” for “minute.”

fibrin clot formation [4] = experiment: Thrombodynamics-4D fibrinography in plasma samples from ADAGE patients on DOACs; assay type: in vivo, human
Source text: as §4, §5
as §3, with “minute. The whole analysis lasts 1 hour. The Thrombodynamics software (Hemacore, Diapharma) calculates parameters of spatiotemporal dynamics of fibrin clot formation and TG [40, 46].” for “minute.”

[5] = Plasma DOAC concentration in ADAGE patients (chromogenic anti-FXa assay for rivaroxaban and apixaban; anti-FIIa Hemoclot assay for dabigatran); assay type: in vivo, human; conditions: for DOAC concentration, median (IQR): ADAGE patients ≥80 y, reduced dose: rivaroxaban 15 mg once daily, apixaban 2.5 mg twice daily, dabigatran 110 mg twice daily; for DOAC concentration, range: ADAGE patients, reduced dose (regimens as E1)
Source text: as §4, §5
Dedicated calibrations and controls were used. The lower limit of quantification was 20 ng/mL for the 3 assays.

[6] = univariate analysis, Tmax, line marked Halving
[7] = univariate analysis, Tmin, line marked Halving
[8] = Tmax (peak), ADAGE patients, reduced dose (regimens as E1)
[9] = Tmin (trough), ADAGE patients, reduced dose (regimens as E1)
[10] = all ADAGE patient samples, Spearman
[11] = all ADAGE patient samples, any time point and dose

- DOAC concentration, median (IQR) ([5]; Tmax (peak)): 171 (123-280) ng/mL
- DOAC concentration, range ([5]; Tmax (peak)): 79 to 665 ng/mL
- DOAC concentration, median (IQR) ([5]; Tmin (trough)): 39 (20-70) ng/mL
- DOAC concentration, range ([5]; Tmin (trough)): 20 to 106 ng/mL
- DOAC plasma concentration, lower end of range [5, 11]: < 20 ng/mL
- DOAC plasma concentration, upper end of range [5, 11]: 665 ng/mL
SMILES: [H]/N=C(/N)c1ccc(NCc2nc3cc(C(=O)N(CCC(=O)O)c4ccccn4)ccc3n2C)cc1 [Dabigatran]
- Samples in which spontaneous clotting occurred (fibrin clot formation [1]): 33%
- Change of Ast (stationary amplitude of thrombin moving peak) with increasing concentrations (thrombin generation [2]): decreased
- Effect on Cmax_ATG, ETP_ATG and Ast compared with the other DOACs (thrombin generation [2]): more pronounced effect
- ETP (endogenous thrombin potential, ETP_ATG), median (IQR) (thrombin generation [3]; Tmax (peak)): 1036 (724-1501) AU⋅min/L
- ETP (endogenous thrombin potential, ETP_ATG), range (thrombin generation [3]; Tmax (peak)): 80-2078 AU⋅min/L
- Thrombin peak height (Cmax_ATG), median (IQR) (thrombin generation [3]; Tmax (peak)): 193 (98-243) AU/L
- Thrombin peak height (Cmax_ATG), range (thrombin generation [3]; Tmax (peak)): 8-354 AU/L
- Thrombography Tlag (Lag_ATG), median (IQR) (thrombin generation [3]; Tmax (peak)): 0.6 (0.4-0.8) min
- Thrombography Tlag (Lag_ATG), range (thrombin generation [3]; Tmax (peak)): 0.2 to 1.5 min
- Time to peak (Tmax_ATG), median (IQR) (thrombin generation [3]; Tmax (peak)): 2.6 (2.1-3.1) min
- Time to peak (Tmax_ATG), range (thrombin generation [3]; Tmax (peak)): 1.6 to 4.6 min
- ETP (endogenous thrombin potential, ETP_ATG), median (IQR) (thrombin generation [3]; Tmin (trough)): 1741 (1602-2290) AU⋅min/L
- ETP (endogenous thrombin potential, ETP_ATG), range (thrombin generation [3]; Tmin (trough)): 1111-2715 AU⋅min/L
- Thrombin peak height (Cmax_ATG), median (IQR) (thrombin generation [3]; Tmin (trough)): 349 (279-380) AU/L
- Thrombin peak height (Cmax_ATG), range (thrombin generation [3]; Tmin (trough)): 168-499 AU/L
- Thrombography Tlag (Lag_ATG), median (IQR) (thrombin generation [3]; Tmin (trough)): 0.2 (0.1-0.2) min
- Thrombography Tlag (Lag_ATG), range (thrombin generation [3]; Tmin (trough)): 0.1 to 0.5 min
- Time to peak (Tmax_ATG), median (IQR) (thrombin generation [3]; Tmin (trough)): 1.85 (1.6-2.1) min
- Time to peak (Tmax_ATG), range (thrombin generation [3]; Tmin (trough)): 1.6 to 2.1 min
- Change of ETP_ATG with increasing DOAC plasma concentrations (thrombin generation [3]; all ADAGE patient samples): decreased
- Effect of DOAC concentration at Tmax (βC.pic) on thrombography peak height (PH) (thrombin generation [3]; [6]): ≈ 0.4838%
- Effect of DOAC concentration at Tmin (βC.res) on thrombography peak height (PH) (thrombin generation [3]; [7]): ≈ 0.4447%
- CS (clot size at 30 minutes), median (IQR) (fibrin clot formation [4]; [8]): 1436 (1332-1583) μm
- CS (clot size at 30 minutes), range (fibrin clot formation [4]; [8]): 1273-2125 μm
- D (clot density), median (IQR) (fibrin clot formation [4]; [8]): 28,810 (27,570-29,170) a.u.
- D (clot density), range (fibrin clot formation [4]; [8]): 22,740-29,360 a.u.
- Fibrinography Tlag (lag time), median (IQR) (fibrin clot formation [4]; [8]): 1.3 (1.2-2.0) min
- Fibrinography Tlag (lag time), range (fibrin clot formation [4]; [8]): 1.0 to 3.9 min
- Initial rate of clot growth (Vi), median (IQR) (fibrin clot formation [4]; [8]): 60.9 (57.8-65.6) μm/min
- Initial rate of clot growth (Vi), range (fibrin clot formation [4]; [8]): 54.5-74.4 μm/min
- Time to Tsp (spontaneous clotting), range (fibrin clot formation [4]; [8]): 9.8 to 58.5 min
- CS (clot size at 30 minutes), median (IQR) (fibrin clot formation [4]; [9]): 1707 (1634-1904) μm
- CS (clot size at 30 minutes), range (fibrin clot formation [4]; [9]): 1612-2205 μm
- D (clot density), median (IQR) (fibrin clot formation [4]; [9]): 32,220 (30,160-36,290) a.u.
- D (clot density), range (fibrin clot formation [4]; [9]): 26,190-39,810 a.u.
- Fibrinography Tlag (lag time), median (IQR) (fibrin clot formation [4]; [9]): 1.0 (0.9-1.1) min
- Fibrinography Tlag (lag time), range (fibrin clot formation [4]; [9]): 0.8 to 1.3 min
- Initial rate of clot growth (Vi), median (IQR) (fibrin clot formation [4]; [9]): 70.3 (66.9-75.1) μm/min
- Initial rate of clot growth (Vi), range (fibrin clot formation [4]; [9]): 57.5-79.5 μm/min
- Time to Tsp (spontaneous clotting), median (IQR) (fibrin clot formation [4]; [9]): 13.7 (11.0-22.2) min
- Time to Tsp (spontaneous clotting), range (fibrin clot formation [4]; [9]): 7.4 to 54.6 min
- Change of CS (clot size) with increasing concentrations (fibrin clot formation [4]; all ADAGE patient samples): decreased
- Association of D (clot density) with DOAC concentration (fibrin clot formation [4]; [10]): significantly associated
- Relationship between time to spontaneous clot formation (Tsp) and DOAC levels (fibrin clot formation [4]; [10]): significant association
- Effect of DOAC concentration at Tmax (βC.pic) on fibrinography initial velocity of clot formation (fibrin clot formation [4]; [6]): ≈ 0.01723%
- Effect of DOAC concentration at Tmin (βC.res) on fibrinography initial velocity of clot formation (fibrin clot formation [4]; [7]): ≈ 0.1281%
